From patent US11718610B2, “Compounds containing benzosultam” (MEDSHINE DISCOVERY INC., priority 2020, dated 2023) come the findings set out here.

Like-named read-outs stand apart in the source and are kept apart here.

For one series, the system named is Calu-6 cells. The experiment in a line: Calu-6 (Kras Q61K) antiproliferative activity experiment (CellTiterGlo). Particulars: cultured three days. The class given is cell-based, human. The method, then: Experimental Embodiment 1: Calu-6 (Kras^Q61K) Antiproliferative Activity Experiment
(1) cell culture medium: 88% RPMI-1640, 10% fetal bovine serum, 1% L-glutamine and 1% penicillin-streptomycin;
(2) culture medium, trypsin and DPBS were preheated in a 37° C. water bath;
(3) the original culture medium was removed in the cell culture flask and washed once with 6 mL of PBS;
(4) 3.5 mL of trypsin was added to the cell culture flask, and the cell culture flask was shaken gently, and the trypsin was removed after full contact with the cell, and then the culture flask was placed into a 37° C. incubator containing 5% CO2 for about 1 minute;
(5) the cells were resuspended with 10 mL of cell culture medium, and about 0.6 mL of cell suspension (ViCell XR) was taken out for counting;
(§1) (6) the cell suspension was diluted with culture medium to a cell density required for plating of 2.5×10^4 cells per mL;
(7) 100 μL of PBS was added to each well around the cell plate, and 40 μL of cell suspension was added to the other wells, and placed in a 37° C. incubator containing 5% CO2 for overnight culture.
(§2) (8) The required cell amount and culture medium were taken based on the new T75 culture flask for continued culture.
(§3) (1) the compound to be tested was prepared into […] solution with DMSO;
(2) 9 μL of the compound was taken and added to Echo shallow well plate (Labcyte, #LP-0200), and the shallow well plate was centrifuged at 1000 rpm for 10 seconds;
(3) DPBS at the periphery of the cell plate was sucked out;
(4) the compound was gradient diluted and administrated with Echo, and 10 concentration gradients of each compound were diluted, and 100 nL of the diluent was added to the 384 cell plate separately, and then the cell plate was put back to the incubator and cultured for three days;
(5) then 100 μL of DPBS was added to the periphery of the cell plate.
(1) CTG was added and the plate was read: 20 μL of CellTiterGlo was added to each well of the cell plate, and the cell plate was shaken in the dark for 10 min. and the plate was read on Envision.

For series [1], the system named is ERK phosphorylation in Calu-6 cells. The series can be described thus: Calu-6 (Kras Q61K) ERK phosphorylation inhibition experiment (HTRF). The following applies: 1 hour incubation with compound. The class given is cell-based, human. As for the experimental part: Experimental Embodiment 5: Calu-6 (Kras^Q61K) ERK Phosphorylation Inhibition Experiment
1) the cells were resuscitated and cultured to logarithmic growth phase, digested with trypsin, seeded in 96-well plates with 30000 cells per well, and incubated overnight in an incubator.
2) 1 μL of gradient compound dissolved with DMSO was added to a 96-well plate and placed back into an incubator to incubate for 1 hour.
3) The cell plates were removed out, and the culture medium was poured off, and 50 μL of cell lysate (with 1% blocking peptide) was added to each well.
4) The lysate plate was mixed at 500 rpm and incubated and lysed at room temperature for 30 minutes.
5) The antibody mixture in the kit was prepared at a ratio of 1:1:38.
6) 16 μL of cell lysate was transferred to the HTRF plate per well, then the 4 μL of the configured antibody mixture was added thereto.
7) After incubation overnight, the plate was read with Envision, and the fitted curve was obtained according to the ratio (the ratio of fluorescence intensity of […]) and the EC50 was calculated according to the four-parameter fitting formula Y=Bottom+(Top−Bottom)/(1+10^((Log EC50−X)*HillSlope)) of Graphpad.

The nature of series [2]: Pharmacokinetics of single intravenous and oral administration in mice. The following applies: single oral administration, 50 mg/kg/day; for Cmax: read-out: Maximum plasma drug concentration Cmax; for Tmax: read-out: Peak time Tmax. The class given is in vivo. As for the experimental part: Experimental Embodiment 6: Pharmacokinetics Study of Single Intravenous and Oral Administration in Mice and Dogs
This experiment was aimed to study the pharmacokinetics of the test compound in mice and dogs in vivo after a single oral administration of the compound.
After intravenous or oral administration, blood samples were collected and the actual blood collection time was recorded. After the blood sample was collected, the sample was immediately transferred to a labeled centrifuge tube containing K2-EDTA, and then the plasma was taken after centrifugation. The plasma was transferred to a precooled centrifuge tube, quickly frozen in dry ice, and stored in an ultra-low temperature refrigerator at −70±10° C. until LC-MS/MS analysis.
Pharmacokinetic software was used to process the plasma drug concentration data of the compound with […] model. The peak concentration (Cmax) and peak time (Tmax), as well as the end time of quantification, were obtained directly from the plasma drug concentration-time graph. The following pharmacokinetic parameters were calculated by logarithmic linear trapezoidal method: half-life (T1/2), apparent distribution volume (Vdss) and clearance rate (Cl), and the area under the time-plasma concentration curve from 0 to the end time point (AUC0-last).

The subject of the next series is HCT116 cells. The experiment in a line: HCT116 (Kras G13D) antiproliferative activity experiment (CellTiter Glo). The class given is cell-based. Particulars: Homo sapiens, HCT-116, 72 h, cultured 3 days. The method, then:
Experimental Embodiment 2: HCT116 (Kras^G13D) Antiproliferative Activity Experiment
(1) cell culture medium: 89% Mc′Coy 5A, 10% fetal bovine serum and 1% penicillin-streptomycin;
(2) culture medium and trypsin were preheated in a 37° C. water bath;
(3) the culture medium was removed in the cell culture flask and washed once with 1 mL of trypsin;
(4) 1 mL of trypsin was added to the cell culture flask, and the cell culture flask was shaken gently, and the trypsin was removed after full contact with the cell, and then the culture flask was placed into a 37° C. incubator containing 5% CO2 for about 1 minute;
(5) the cells were resuspended with 2 mL of cell culture medium, and about 0.01 mL of cell suspension was taken out for counting;
as §1
(7) 100 μL of culture medium was added to each well around the cell plate, and 80 μL of cell suspension was added to the other wells, and placed in a 37° C. incubator containing 5% CO2 for overnight culture.
as §2, §3
(2) 9 concentration gradients and 3-fold dilutions were performed on the compounds, that is, a double-duplicate experiment was set from 6 mmol to 2.7 μmol, and 78 μL of culture medium was added to the middle plate, and then 2 μL of gradient diluted compound per well was transferred to the middle plate according to the corresponding position, and after mixing, 20 μL per well was transferred to the cell plate, and the final concentration of the compound transferred to the cell plate was 30 μmol to 13.7 nmol. The cell plate was placed in a carbon dioxide incubator and cultured for another 3 days.
(1) CTG was added and the plate was read: 20 μL of CellTiter Glo was added to each well of the cell plate, and the cell plate was shaken in the dark for 10 min;
(2) plates were read on Victor Nivo.
The equation (Sample-Min)/(Max-Min)*100% was used to convert the original data into inhibition rate, and the IC50 value could be obtained by curve fitting with four parameters (obtained by “log (inhibitor) vs. response—variable slope” mode in GraphPad Prism).

A further series deals with A375 cells. The series can be described thus: A375 (BRAF V600E) antiproliferative activity experiment (CellTiter-glo). Particulars: Homo sapiens, A-375, 120 h, cultured 5 days. The series is classed as cell-based. As for the experimental part: Experimental Embodiment 3: A375 (BRAF^V600E) Antiproliferative Activity Experiment
Cell line A375 (purchased from Procell). DMEM culture medium, penicillin/streptomycin antibiotics were purchased from Vicente, and fetal bovine serum was purchased from Biosera. CellTiter-glo (cell viability chemiluminescence detection reagent) reagent was purchased from Promega.
A375 cells were seeded in a white 96 well plate with […] of cell suspension per well containing 2000 of A375 cells. The cell plate was placed in a carbon dioxide incubator and cultured overnight. The compound to be tested was diluted 3-fold to the 9th concentration with a pipette, that is, diluted from 6 mmol to 0.91 μmol, and a double-duplicate experiment was set-up, 78 μmol of culture medium was added to the middle plate, then 2 μmol of gradient dilution compound per well was transferred to the middle plate according to the corresponding position, and 20 μmol per well was mixed and transferred to the cell plate. The concentration of the compound transferred to the cell plate ranged from 30 μmol to 4.57 nmol. The cell plate was placed in a carbon dioxide incubator and cultured for 5 days. Another cell plate was prepared, and the signal value was read as the maximum value (max value in the following equation) on the day of administration to participate in data analysis, 25 μmol of cell viability chemiluminescence detection reagent was added to each well of the cell plate and incubated at room temperature for 10 minutes to stabilize the luminescence signal. A multi-marker analyzer reading was used. After the incubation of the cell plate added with the compound was finished, 25 μmol of cell viability chemiluminescence detection reagent was added to each well of the cell plate and incubated at room temperature for 10 minutes to stabilize the luminescence signal. A multi-marker analyzer reading was used.
(§4) The equation (Sample−Min)/(Max−Min)*100% was used to convert the original data into inhibition rate, and the IC50 value could be obtained by curve fitting with four parameters (obtained by “log (inhibitor) vs. response—variable slope” mode in GraphPad Prism).

A further series concerns Colo205 cells. The series can be described thus: Colo205 (BRAF V600E) antiproliferative activity experiment (CellTiter-glo). The series is classed as cell-based. Particulars: Homo sapiens, COLO 205, 72 h, cultured 3 days. As for the experimental part:
Experimental Embodiment 4: Colo205 (BRAF^V600E) Antiproliferative Activity Experiment
Cell line COLO205 (purchased from Procell), RPMI1640 culture medium, penicillin/streptomycin antibiotics were purchased from Vicente, and fetal bovine serum was purchased from Biosera. CellTiter-glo (cell viability chemiluminescence detection reagent) reagent was purchased from Promega.
COLO205 cells were seeded in a white 96-well plate with […] of cell suspension per well containing 3000 of COLO205 cells. The cell plate was placed in a carbon dioxide incubator and cultured overnight. The compound to be tested was diluted 3-fold to the 9th concentration with a pipette, that is, diluted from […], and a double-duplicate experiment was set-up. 78 μmol of culture medium was added to the middle plate, then 2 μmol of gradient dilution compound per well was transferred to the middle plate according to the corresponding position, and 20 μmol of per well was mixed and transferred to the cell plate. The concentration of the compound transferred to the cell plate ranged from 1 μmol to 0.15 nmol. The cell plate was placed in a carbon dioxide incubator and cultured for 3 days. Another cell plate was prepared, and the signal value was read as the maximum value (max value in the following equation) on the day of administration to participate in data analysis. 25 μmol of cell viability chemiluminescence detection reagent was added to each well of the cell plate and incubated at room temperature for 10 minutes to stabilize the luminescence signal. A multi-marker analyzer reading was used. After the incubation of the cell plate added with the compound was finished, 25 μmol of cell viability chemiluminescence detection reagent was added to each well of the cell plate and incubated at room temperature for 10 minutes to stabilize the luminescence signal. A multi-marker analyzer reading was used.
as §4

On to `COc1cc(F)cc([C@@H](CO)NC(=O)[C@@H](C)N2Cc3ccc(-c4nc(NC5CCOCC5)ncc4Cl)cc3S2(=O)=O)c1` [Compound 4], for which inhibition with Calu-6 cells was half-maximal at 239 nM (IC50). In addition, in series [1], the IC50 amounted to 6.36 nM. Moreover, in series [2], the “Peak time Tmax” value is listed as 1 h and the Cmax was found to be 182 µM.
For `COc1cc(F)cc([C@@H](CO)NC(=O)[C@@H](C)N2Cc3ccc(-c4nc(N[C@@H]5CCOC[C@H]5F)ncc4Cl)cc3S2(=O)=O)c1` [Compound 2], the half-maximal inhibitory concentration (IC50) in the series on Calu-6 cells (Homo sapiens, Calu-6, 72 h) worked out at 222 nM; in series [1] (Homo sapiens, Calu-6, 1 h), 13.1 nM.
In the series on Calu-6 cells (Homo sapiens, Calu-6, 72 h), `COc1cc(F)cc([C@@H](C)NC(=O)[C@@H](CO)N2Cc3ccc(-c4nc(NC5CCOCC5)ncc4Cl)cc3S2(=O)=O)c1` [Compound 6] registered an IC50 of 508 nM.
Turning to `COc1cc(F)cc([C@@H](CO)NC(=O)CN2Cc3ccc(-c4nc(NC5CCOCC5)ncc4Cl)cc3S2(=O)=O)c1` [Compound 10], the IC50 with Calu-6 cells (Homo sapiens, Calu-6, 72 h) turned out to be 253 nM; in series [1] (Homo sapiens, Calu-6, 1 h) it was 3.03 nM. Moreover, the Cmax in series [2] (mouse, plasma, po) amounted to 34.6 µM. Moreover, the Tmax in series [2] (mouse, plasma) worked out at 1 h.
On to `C[C@H](C(=O)N[C@H](CO)c1cccc(N(C)C)n1)N1Cc2ccc(-c3nc(NC4CCOCC4)ncc3Cl)cc2S1(=O)=O` [Compound 8], for which 313 nM corresponded to half-maximal inhibition in the series on Calu-6 cells (Homo sapiens, Calu-6, 72 h) (IC50).
`C[C@H](C(=O)N[C@H](CO)c1cc(F)cc(Cl)c1)N1Cc2ccc(-c3nc(NC4CCOCC4)ncc3Cl)cc2S1(=O)=O` [Compound 5]: the IC50 turned out to be 222 nM in the series on Calu-6 cells (Homo sapiens, Calu-6, 72 h) and 6.92 nM in series [1] (Homo sapiens, Calu-6, 1 h). The Cmax in series [2] (mouse, plasma, po) is 90.5 µM. The Tmax in series [2] (mouse, plasma) was 0.75 h.
For the molecule `[2H]C1([2H])CC(Nc2ncc(Br)c(-c3ccc4c(c3)S(=O)(=O)N([C@H](C)C(=O)N[C@H](CO)c3cc(F)cc(OC)c3)C4)n2)CC([2H])([2H])O1` [Compound 12], the IC50 with HCT116 cells came out at 112 nM; with A375 cells, 16 nM; with Colo205 cells, 21 nM; in series [1] (Homo sapiens, Calu-6, 1 h), 6.91 nM.
Take `Cc1cccc([C@@H](CO)NC(=O)[C@@H](C)N2Cc3ccc(-c4nc(NC5CCOCC5)ncc4Cl)cc3S2(=O)=O)c1` [Compound 7]: the IC50 is 210 nM with Calu-6 cells (Homo sapiens, Calu-6, 72 h) and 4.39 nM in series [1] (Homo sapiens, Calu-6, 1 h).
As to `COc1cc(F)cc([C@@H](CO)NC(=O)[C@@H](C)N2Cc3ccc(-c4nc(N[C@H]5CCOC[C@H]5F)ncc4Br)cc3S2(=O)=O)c1` [Compound 13], the IC50 in the series on HCT116 cells is 138 nM; in the series on A375 cells, 17 nM; in the series on Colo205 cells it was 21 nM; in series [1] (Homo sapiens, Calu-6, 1 h), 7.84 nM.
